# From article PMC9551036, “A selective and orally bioavailable VHL-recruiting PROTAC achieves SMARCA2 degradation in vivo” (Nature Communications, 2022)
# Several values for one entry are separate records, joined by “and”; a condition that tells them apart may be missing. Equal values may be shown once.
# Legend:
# [1] = Microsomal stability; format: in vitro ADME; conditions: for Mic. Stab. Human / Mic. Stab. Human QH: human liver microsomes; for Mic. Stab. Mouse / Mic. Stab. Mouse QH: mouse liver microsomes; for Mic. Stab. Rat / Mic. Stab. Rat QH: rat liver microsomes
# Description: […] Reactions were terminated by addition of acetonitrile and precipitates separated by centrifugation. Compound concentrations in supernatants were measured by HPLC-MS/MS and clearance was calculated from compound half-lives using the well-stirred liver model.
# [2] = test system: Caco-2 cell monolayer; test: Bidirectional permeability measurement in Caco-2 cells; format: in vitro ADME
# Description: Bidirectional permeability of test compounds across a Caco-2 cell monolayer was measured as described[43] with a modification of preincubation time[44]: Briefly, Caco-2 cells were seeded onto Transwell inserts (#3379, Corning, Wiesbaden, Germany) at a density of 160000 cells/cm^2 and cultured in DMEM (high glucose) containing 10% fetal bovine serum for 14–21 days. Cells were incubated with culture media containing 1 µM test compound for 24 h. […] Samples were taken at different time points for up to 2 h. Test compound in the samples was quantified with LC-MS/MS. To elucidate the role of drug transporter P-gp in the transcellular transport, permeability measurement was performed in the absence and presence of the selective P-gp inhibitor zosuquidar (5 µM final concentration). Apparent permeability coefficients (Papp,AB, Papp,BA) were calculated as follows:1 Papp,AB=Q_AB/C0×s×t 2 Papp,BA=Q_BA/C0×s×t where Q is the amount of compound recovered in the receiver compartment after the incubation time t, C0 the initial compound concentration given to the donor compartment, and s the surface area of the Transwell inserts. Efflux ratio is calculated as the quotient of Papp,BA (mean of duplicate) to Papp,AB (mean of duplicate). […] In addition, Transepithelial electrical resistance (TEER) values were measured for each plate before the permeability assay. All three parameters (efflux of the reference substrates, Papp values of the low permeable compound, and TEER values) were used to ensure the quality of the assays.
# [3] = molecular target: T1, PBRM1BD5 (Homo sapiens, UniProt P40337+Q86U86); test: TR-FRET ternary complex affinity and cooperativity, PBRM1; format: binding; conditions: TR-FRET competition for PBRM1BD5, + VCB; mean ± SD; read-out: TR-FRET Ternary PBRM1BD EC50 (PROTAC + VCB)
# T1 construct: GST (TEV site) (N); His6 (TEV site) (N, cleaved yes); made in house; host or cells: PBRM1^BD5: Escherichia coli BL21(DE3)
# [4] = test system: PBRM1BD5; test: as above; format: binding; conditions: ratio TR-FRET EC50 / TR-FRET EC50 +VCB measured in the same run, PBRM1BD5
# [5] = molecular target: VCB: PROTAC: SMARCA2^BD ternary complex (Homo sapiens, UniProt P40337+P51531); test: SPR ternary complex measurement, VCB immobilised, 10 µM SMARCA2^BD present; format: binding; design: P51531-2, residues 1373-1493 with additional N-terminal SM residues; His6 (TEV site) (N, cleaved yes); GST (TEV site) (N, cleaved yes); made in house; host or cells: SMARCA2^BD: Escherichia coli BL21(DE3); conditions: for Kd: SPR; for alpha: cooperativity, SMARCA2, ratio of KD values measured in the same run
# Description: SPR data were acquired on Biacore 8K or T200 instruments (Cytiva). Target proteins were immobilised at 25 °C on CM5 chips by amine coupling (EDC/NHS, Cytiva) in HBS-P+ running buffer (pH 7.4), containing 2 mM TCEP. […] The reference surface was subsequently deactivated using 1 M ethanolamine. […] Biotinylated VCB was prepared as previously described[27]: in brief, the complex was mixed 1:1 with EZ-Link NHS–PEG4–biotin (Thermo Scientific) and incubated at room temperature for 1 h. Unreacted NHS-biotin was removed using a PD-10 desalting column (Cytiva) into 20 mM HEPES, pH 7.5, 150 mM sodium chloride and 1 mM DTT. The reference surface was generated by deactivating the EDC/NHS-treated surface with 1 M ethanolamine. All interaction experiments were done at 6 °C in running buffer (20 mM TRIS, pH 8.3, 150 mM potassium chloride, 2 mM magnesium chloride, 2 mM TCEP, 0.005% TWEEN 20, 1% dimethyl sulfoxide). For ternary complex measurements, a sensor chip surface with VCB immobilised was used (preparation as described above). Experiments were run in dual-inject mode with 10 µM SMARCA present during the injection and dissociation phase. Sensorgrams from reference surfaces and blank injections were subtracted from the raw data prior to data analysis using Biacore Insight software. Affinity and binding kinetic parameters were determined by global fitting using the 1:1 interaction model with a term for mass-transport included.
# [6] = Modified Caco-2, a to b, + PGPi (Zosuquidar)
# [7] = ternary complex with SMARCA2BD, mean ± SD
# VCB: PROTAC: SMARCA2^BD ternary complex, sequence (P40337 54-213): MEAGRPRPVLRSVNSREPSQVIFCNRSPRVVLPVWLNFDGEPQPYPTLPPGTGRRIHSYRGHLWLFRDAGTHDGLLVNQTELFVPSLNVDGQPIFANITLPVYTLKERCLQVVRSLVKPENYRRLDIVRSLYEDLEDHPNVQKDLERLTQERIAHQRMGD
# VCB: PROTAC: SMARCA2^BD ternary complex, sequence (Q15369 17-112 partner limits assumed): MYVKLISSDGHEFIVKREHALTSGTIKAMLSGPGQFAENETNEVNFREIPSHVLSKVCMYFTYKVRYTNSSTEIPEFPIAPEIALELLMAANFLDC
# VCB: PROTAC: SMARCA2^BD ternary complex, sequence (Q15370 1-104 partner limits assumed): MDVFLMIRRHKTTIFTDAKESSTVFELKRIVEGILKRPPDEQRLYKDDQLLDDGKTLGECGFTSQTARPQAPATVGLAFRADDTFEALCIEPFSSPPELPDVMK
# VCB: PROTAC: SMARCA2^BD ternary complex, sequence (P51531 1373-1493 isoform P51531-2): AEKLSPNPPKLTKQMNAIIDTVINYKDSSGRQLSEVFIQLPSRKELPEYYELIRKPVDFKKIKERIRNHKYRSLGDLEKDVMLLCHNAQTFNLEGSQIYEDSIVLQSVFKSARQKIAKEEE
# T1 sequence (Q86U86 645-766): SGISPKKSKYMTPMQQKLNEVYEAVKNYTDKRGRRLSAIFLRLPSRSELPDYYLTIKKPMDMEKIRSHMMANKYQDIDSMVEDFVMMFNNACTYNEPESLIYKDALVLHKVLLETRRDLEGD
# T1 sequence (P40337 54-213): as the sequence (P40337 54-213) above
# T1 sequence (Q15369 17-112 partner): as the sequence (Q15369 17-112 partner limits assumed) above
# T1 sequence (Q15370 1-104 partner): as the sequence (Q15370 1-104 partner limits assumed) above
Structure (SMILES),Mic. Stab. Human [1],Mic. Stab. Human QH [1],Mic. Stab. Mouse [1],Mic. Stab. Mouse QH [1],Mic. Stab. Rat [1],Mic. Stab. Rat QH [1],Caco-2 Pab ([2]; Caco-2),EC50 [3],cooperativity α (PBRM1BD) [4],"Kd [5, 7]","Kd ([5]; ternary, individual replicates)",alpha [5],"Caco-2 Pab ([2]; Caco-2, a to b)",further results
Cc1ncsc1-c1ccc([C@H](CCC(C)(C)CCN2CCC(c3ccc4c(c3)n(C3CCCC3)c3nc(=O)c5c(Br)cccc5n43)CC2)NC(=O)[C@@H]2C[C@@H](O)CN2C(=O)[C@@H](NC(=O)C2(F)CC2)C(C)(C)C)cc1 [compound 30],<24 % QH,<24.400 <24.400%,<24 % QH,<24.200%,<23 % QH,<23.100 <23.100%,<0.3 10-6 cm/s,6 ± 2 nM,22.4 ± 3.9,86 ± 22 nM,66.1 nM and 109 nM and 81.8 nM,0.3,,"Caco-2 Efflux ratio ([2]; Caco-2): 9.412 No peak area; Modified Caco-2 Efflux ratio ([2]; Modified Caco-2): 7.333 and 12.000 and 10 ± 3; Modified Caco-2 Pab ([2]; Modified Caco-2, a to b): 4.5 ×10⁻⁶ cm/s and 2.5 ×10⁻⁶ cm/s; Modified Caco-2 Pab + PGPi (Zosuquidar) [2, 6]: 7.2 ×10⁻⁶ cm/s and 8.4 ×10⁻⁶ cm/s"
Cc1ncsc1-c1ccc([C@H](COCCCN2CCC(c3ccc4c(c3)n(C3CCCC3)c3nc(=O)c5c(Br)cccc5n43)CC2)NC(=O)[C@@H]2C[C@@H](O)CN2C(=O)[C@@H](NC(=O)C2(F)CC2)C(C)(C)C)cc1 [compound 27],43 ± 5 % QH,46.200% and 38.900%,<25 % QH,24.700% and < 24.200%,<23 % QH,<23.100 <23.100%,5 10-6 cm/s,3 ± 0.5 nM,12.2 ± 2.8,26 nM,26.7 nM and 25.9 nM and 26.4 nM,0.5,,Caco-2 Efflux ratio ([2]; Caco-2): 4.167 and 4
Cc1ncsc1-c1ccc([C@H](CC[C@@H](C)CCN2CCC(c3ccc4c(c3)n(C3CCCC3)c3nc(=O)c5c(Br)cccc5n43)CC2)NC(=O)[C@@H]2C[C@@H](O)CN2C(=O)[C@@H](NC(=O)C2(F)CC2)C(C)(C)C)cc1 [compound 29],<24 % QH,<24.400 <24.400%,<24 % QH,<24.200 <24.200%,<23 % QH,<23.100 <23.100%,2 ± 0.2 10-6 cm/s,3 ± 1 nM,24.9 ± 2.4,20 ± 4 nM,15.6 nM and 23 nM and 21.9 nM,0.6,1.9e-06 cm/s and < 1.9e-06 cm/s and 2.4e-06 cm/s,
Cc1ncsc1-c1ccc([C@H](COCCN2CCC(c3ccc4c(c3)n(C3CCCC3)c3nc(=O)c5c(Br)cccc5n43)CC2)NC(=O)[C@@H]2C[C@@H](O)CN2C(=O)[C@@H](NC(=O)C2(N(C)C)CC2)C(C)(C)C)cc1 [compound 26],86 ± 0.3 % QH,86.500% and 86.000% and 86.480%,>88 % QH,> 88.400% and 90.900%,58 ± 3 % QH,60.400% and 54.700% and 57.700%,,6 ± 2 nM,4.0 ± 1.2,95 ± 37 nM,64.1 nM and 136 nM and 86.3 nM,0.8,<2.7e-06 cm/s,
Cc1ncsc1-c1ccc(CNC(=O)[C@@H]2C[C@@H](O)CN2C(=O)[C@@H](NC(=O)C2(F)CC2)C(C)(C)C)c(OCCN2CCC(c3ccc4c(c3)n(C3CCCC3)c3nc(=O)c5c(Br)cccc5n43)CC2)c1 [compound 20],89 ± 7 % QH,92.780% and 92.740% and 91.810% and 92.050% and 77.420%,76 ± 2 % QH,73.270% and 75.530% and 75.780% and 78.330%,33 ± 3 % QH,34.870% and 29.970% and 29.780% and 36.100% and < 23.080%,<0.4 10-6 cm/s,35 ± 4 nM,1.1 ± 0.1,97 ± 10 nM,89.5 nM and 108 nM and 91.8 nM,0.1,<4.04e-07 cm/s,
Cc1ncsc1-c1ccc([C@H](CCCCN2CCC(c3ccc4c(c3)n(C3CCCC3)c3nc(=O)c5c(Br)cccc5n43)CC2)NC(=O)[C@@H]2C[C@@H](O)CN2C(=O)[C@@H](NC(=O)C2(F)CC2)C(C)(C)C)cc1 [compound 25],25 % QH,24.800%,<24 % QH,<24.200%,<23 % QH,<23.100%,<4 10-6 cm/s,3 ± 1 nM,11.2 ± 2.1,36 ± 15 nM,22.7 nM and 51.6 nM and 32.9 nM,0.2,<4.3e-06 cm/s,
Cc1ncsc1-c1ccc([C@H](CCCCCN2CCC(c3ccc4c(c3)n(C3CCCC3)c3nc(=O)c5c(Br)cccc5n43)CC2)NC(=O)[C@@H]2C[C@@H](O)CN2C(=O)[C@@H](NC(=O)C2(F)CC2)C(C)(C)C)cc1 [compound 11],<24 % QH,<24.400 <24.400 <24.400 <24.400%,<24 % QH,<24.200 <24.200 <24.200 <24.200 <24.200 <24.200 <24.200 <24.200%,<23 % QH,<23.100 <23.100 <23.100 <23.100 <23.100 <23.100 <23.100 <23.100%,,4 ± 1 nM,11.9 ± 1.3,37 ± 12 nM,45.4 nM and 28.1 nM,0.3,,"microsomal stability [1]: good microsomal stability; Caco-2 permeability [2]: improved permeability; efflux ratio ([2]; Caco-2): high efflux ratio; Modified Caco-2 + PGPi (Zosuquidar) Pab ([2]; Modified Caco-2 + PGPi (Zosuquidar)): 11 ± 3 10-6 cm/s; Modified Caco-2 Pab + PGPi (Zosuquidar) [2, 6]: 12 ×10⁻⁶ cm/s and 16 ×10⁻⁶ cm/s and 9 ×10⁻⁶ cm/s and 8.7 ×10⁻⁶ cm/s; Modified Caco-2 Pba + PGPi (Zosuquidar) ([2]; Modified Caco-2, b to a, + PGPi (Zosuquidar)): 19 ×10⁻⁶ cm/s"
Cc1ncsc1-c1ccc(CNC(=O)[C@@H]2C[C@@H](O)CN2C(=O)[C@@H](NC(=O)C2(F)CC2)C(C)(C)C)c(OCCOCCOCCN2CCC(c3ccc4c(c3)n(C3CCCC3)c3nc(=O)c5c(Br)cccc5n43)CC2)c1 [compound 21],87 ± 10 % QH,92.470% and 92.660% and 75.300%,56 ± 10 % QH,62.650% and 61.360% and 44.780%,45 ± 13 % QH,57.680% and 45.850% and 32.500%,<0.3 10-6 cm/s,38 ± 4 nM,2.0 ± 0.1,58 ± 8 nM,49 nM and 65.4 nM and 58.3 nM,0.4,<2.83e-07 cm/s,
